Source: ChEMBL document CHEMBL2440079, “Synthesis and in vitro evaluation of a novel radioligand for αvβ3 integrin receptor imaging: [18F]FPPA-c(RGDfK)” (Bioorg Med Chem Lett, 2013)
Activity calls are given as the source filed them. The rule behind the calls is not given here.

Key:
[1] = molecular target: T1, Integrin alpha-V/beta-3 (Homo sapiens, UniProt P05106+P06756); assay: Binding affinity to soluble truncated human recombinant Fc-tagged alphaVbeta3 and integrins were expressed in HEK293T cells after 2 hrs by competition ELISA-like assay; assay type: cell-based, HEK-293T
[2] = molecular target: Integrin alpha-5/beta-1 (Homo sapiens, UniProt P05556+P08648); assay: Binding affinity to soluble truncated human recombinant 6His-tagged alpha5beta1 and integrins were expressed in HEK293T cells after 2 hrs by competition ELISA-like assay; assay type: cell-based, HEK-293T
[3] = tested on: HEK-293T; assay: Selectivity ratio of IC50 for soluble truncated human recombinant 6His-tagged alpha5beta1 and integrins were expressed in HEK293T cells to IC50 for soluble truncated human recombinant Fc-tagged alphaVbeta3 and integrins; assay type: cell-based
[4] = molecular target: T1, Integrin alpha-V/beta-3; assay: Activation of alphaVbeta3 integrin in HUVEC at 10 uM by flow cytometry; assay type: protein-complex assay

Row | SMILES | IC50 [1] [nM] | IC50 [2] [nM] | Ratio IC50 [3] | Activity [4]
1 | NC(N)=NCCC[C@@H]1NC(=O)[C@H](CCCCn2cc(CCC(=O)Nc3ccc(F)cc3)nn2)NC(=O)[C@@H](Cc2ccccc2)NC(=O)[C@H](CC(=O)O)NC(=O)CNC1=O | 10.6 | 3650 | – | –
2 | N=C(N)NCCC[C@@H]1NC(=O)[C@H](CCCCn2cc(CCC(=O)Nc3ccc(F)cc3)nn2)NC(=O)[C@@H](Cc2ccccc2)NC(=O)[C@H](CC(=O)O)NC(=O)CNC1=O | – | – | 300 | Active
